# How the values were obtained:
# HSP90α = HSP90α (Homo sapiens, UniProt P07900); test: HSP90α Binding Fluorescent Polarization (FP) Assay; conditions: competition with FITC-geldanamycin; read-out: HSP90 Binding Potency
# Outline: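 Duplicate wells held BSA buffer, FITC-geldanamycin tracer, compound (3-fold dilution plate spanning 40 μM–2.0 nM) and recombinant protein diluted to 28 μg/ml before addition. Polarization read at 30, 60 and 120 min, 25 °C. Background-corrected mP values gave IC50 through a four-parameter inhibitor-response fit.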
# BRD4 (BD1+BD2) = molecular target: T1, BRD4 (BD1+BD2) (Homo sapiens, UniProt O60885); conditions: read-out: BRD4 Binding Potency
# T1 construct: 1.8 μg/ml recombinant BRD4 (BD1+BD2 domains) protein
# MV4-11 cells = test: MV4-11 Cell Cytotoxicity Assay; format: cell-based, human; conditions: human, MV4-11 cells, CCK-8
# Description: % Inhibition=100−(D−B)/(S−B)*100%.
# S: The absorbance of the maximum (cells with DMSO)
# B: The absorbance of the minimum (medium with DMSO)
Compound,IC50 (HSP90α) [nM],IC50 (BRD4 (BD1+BD2)) [nM],IC50 at 72 h (MV4-11 cells) [nM]
"Cc1sc2c(c1C)C(c1ccc(Cl)cc1)=N[C@@H](CC(=O)N1CCC(N3CCN(Cc4ccc(-n5c(O)nnc5-c5cc(C(C)C)c(O)cc5O)cc4)CC3)CC1)c1nnc(C)n1-2 [Compound 42, (S)-2-(4-(4-chlorophenyl)-2,3,9-trimethyl-6H-thieno[3,2-f][1,2,4]triazolo[4,3-a][1,4]diazepin-6-yl)-1-(4-(4-(4-(3-(2,4-dihydroxy-5-isopropylphenyl)-5-hydroxy-4H-1,2,4-triazol-4-yl)benzyl)piperazin-1-yl)piperidin-1-yl)ethan-1-one, trifluoroacetic acid]",100 to 1000,100 to 1000,< 100
"CCNC(=O)c1nnc(-c2cc(C(C)C)c(O)cc2O)n1-c1ccc(CC2CCN(CC3CCN(C(=O)C[C@@H]4N=C(c5ccc(Cl)cc5)c5c(sc(C)c5C)-n5c(C)nnc54)CC3)CC2)cc1 [Compound 90, (S)-4-(4-((1-((1-(2-(4-(4-chlorophenyl)-2,3,9-trimethyl-6H-thieno[3,2-f][1,2,4]triazolo[4,3-a][1,4]diazepin-6-yl)acetyl)piperidin-4-yl)methyl)piperidin-4-yl)methyl)phenyl)-5-(2,4-dihydroxy-5-isopropylphenyl)-N-ethyl-4H-1,2,4-triazole-3-carboxamide]",100 to 1000,100 to 1000,< 100
"Cc1sc2c(c1C)C(c1ccc(Cl)cc1)=N[C@@H](CC(=O)N1CCC(CN3CCN(Cc4ccc(-n5c(S)nnc5-c5cc(C(C)C)c(O)cc5O)cc4)CC3)CC1)c1nnc(C)n1-2 [Compound 12, 2-((6S)-4-(4-chlorophenyl)-2,3,9-trimethyl-6H-thieno[3,2-f][1,2,4]triazolo[4,3-a][1,4]diazepin-6-yl)-1-(4-((4-(4-(3-(2,4-dihydroxy-5-isopropylphenyl)-5-mercapto-4H-1,2,4-triazol-4-yl)benzyl)piperazin-1-yl)methyl)piperidin-1-yl)ethanone, trifluoroacetic acid]",< 100,> 1000,< 100
"Cc1sc2c(c1C)C(c1ccc(Cl)cc1)=N[C@@H](CC(=O)N1CCN(c3ccc(-n4c(O)nnc4-c4cc(C(C)C)c(O)cc4O)cc3)CC1)c1nnc(C)n1-2 [Compound 79, (S)-2-(4-(4-chlorophenyl)-2,3,9-trimethyl-6H-thieno[3,2-f][1,2,4]triazolo[4,3-a][1,4]diazepin-6-yl)-1-(4-(4-(3-(2,4-dihydroxy-5-isopropylphenyl)-5-hydroxy-4H-1,2,4-triazol-4-yl)phenyl)piperazin-1-yl)ethan-1-one]",100 to 1000,100 to 1000,< 100
"CCc1cc(-c2nnc(C(=O)NCC(F)(F)F)n2-c2ccc(CN3CCN(CC4CCN(C(=O)C[C@@H]5N=C(c6ccc(Cl)cc6)c6c(sc(C)c6C)-n6c(C)nnc65)CC4)CC3)cc2)c(O)cc1O [Compound 14, 4-(4-((4-((1-(2-((6S)-4-(4-chlorophenyl)-2,3,9-trimethyl-6H-thieno[3,2-f][1,2,4]triazolo[4,3-a][1,4]diazepin-6-yl)acetyl)piperidin-4-yl)methyl)piperazin-1-yl)methyl)phenyl)-5-(5-ethyl-2,4-dihydroxyphenyl)-N-(2,2,2-trifluoroethyl)-4H-1,2,4-triazole-3-carboxamide, trifluoroacetic acid]",100 to 1000,> 1000,< 100
"CCCc1cc(-c2nnc(O)n2-c2ccc(CN3CCN(CC4CCN(C(=O)C[C@@H]5N=C(c6ccc(Cl)cc6)c6c(sc(C)c6C)-n6c(C)nnc65)CC4)CC3)cc2)c(O)cc1O [Compound 11, (S)-2-(4-(4-chlorophenyl)-2,3,9-trimethyl-6H-thieno[3,2-f][1,2,4]triazolo[4,3-a][1,4]diazepin-6-yl)-1-(4-((4-(4-(3-(2,4-dihydroxy-5-propylphenyl)-5-hydroxy-4H-1,2,4-triazol-4-yl)benzyl)piperazin-1-yl)methyl)piperidin-1-yl)ethan-1-one, trifluoroacetic acid]",< 100,100 to 1000,< 100
